Data published in PubChem BioAssay AID256 (DTP/NCI, 2004).
Values joined by “and” are separate entries in the source; they are usually repeats but may differ in a detail not shown here. Equal entries are not always repeated. Inconclusive results and toxic doses are left out. Rule for the calls: active = survival T/C of 150% or more; inactive = T/C below 125% in these data.

Tested on: CD2F1 mice, L1210 leukemia ip, survival T/C
Test: NCI In Vivo Anticancer Drug Screen. Data for tumor model L1210 Leukemia (intraperitoneal) in CD2F1 (CDF1) mice
Settings: higher = longer survival
Method in brief: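 In this screen, transplantable tumors were grown in mice given either the compound or its vehicle. Results were expressed as the treated measurement relative to the control measurement.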

[1] = endpoint: mean survival time, dose: 25.0 mg/kg/injection, schedule: Q04DX003 (ip), vehicle: saline
[2] = endpoint: mean survival time, dose: 100.0 mg/kg/injection, schedule: Q04DX003 (ip), vehicle: saline
[3] = endpoint: mean survival time, dose: 200.0 mg/kg/injection, schedule: Q04DX003 (ip), vehicle: saline
[4] = endpoint: mean survival time, dose: 25.0 mg/kg/injection, schedule: Q01DX009 (ip), vehicle: saline with Tween-80
[5] = endpoint: mean survival time, dose: 50.0 mg/kg/injection, schedule: Q01DX009 (ip), vehicle: saline with Tween-80
[6] = endpoint: mean survival time, dose: 100.0 mg/kg/injection, schedule: Q01DX009 (ip), vehicle: saline with Tween-80
[7] = endpoint: mean survival time, dose: 200.0 mg/kg/injection, schedule: Q01DX009 (ip), vehicle: saline with Tween-80
[8] = endpoint: mean survival time, dose: 400.0 mg/kg/injection, schedule: Q01DX009 (ip), vehicle: saline with Tween-80
[9] = endpoint: mean survival time, dose: 6.25 mg/kg/injection, schedule: Q01DX009 (ip), vehicle: saline with Tween-80
[10] = endpoint: mean survival time, dose: 12.5 mg/kg/injection, schedule: Q01DX009 (ip), vehicle: saline with Tween-80
[11] = endpoint: mean survival time, dose: 100.0 mg/kg/injection, schedule: Q04DX003 (ip), vehicle: saline with Tween-80
[12] = endpoint: mean survival time, dose: 200.0 mg/kg/injection, schedule: Q04DX003 (ip), vehicle: saline with Tween-80
[13] = endpoint: mean survival time, dose: 400.0 mg/kg/injection, schedule: Q04DX003 (ip), vehicle: saline with Tween-80

Measured: T/C

OC1(c2c(F)c(F)c(F)c(F)c2F)C2CCC1CC2 (stereo unspecified)
inactive: endpoint: mean survival time, dose: 37.5 mg/kg/injection, schedule: Q04DX002 (ip), vehicle: saline with Tween-80 98 % of control | endpoint: mean survival time, dose: 75.0 mg/kg/injection, schedule: Q04DX002 (ip), vehicle: saline with Tween-80 110 % of control | endpoint: mean survival time, dose: 150.0 mg/kg/injection, schedule: Q04DX002 (ip), vehicle: saline with Tween-80 98 % of control | endpoint: mean survival time, dose: 300.0 mg/kg/injection, schedule: Q04DX002 (ip), vehicle: saline with Tween-80 102 % of control

CNNCCC(=O)NC(C)C
inactive: [1] 106 % of control | endpoint: mean survival time, dose: 50.0 mg/kg/injection, schedule: Q04DX003 (ip), vehicle: saline 103 % of control | [2] 101 % of control | [3] 91 % of control

CC(=O)NC(Cc1ccc(F)cc1)C(=O)O (stereo unspecified)
inactive: [4] 95 % of control and 97 % of control | [5] 97 % of control and 98 % of control | [6] 95 % of control and 103 % of control | [7] 95 % of control and 101 % of control | [8] 98 % of control and 101 % of control | endpoint: mean survival time, dose: 800.0 mg/kg/injection, schedule: Q01DX009 (ip), vehicle: saline with Tween-80 97 % of control and 105 % of control

CCOC(=O)C(Br)(Br)C(=O)OCC
inactive: [9] 99 % of control | [10] 99 % of control | [4] 99 % of control

C=CCOC(=N)C(Cl)(Cl)Cl
inactive: [5] 106 % of control | [6] 95 % of control

CC1(C)CC23C4COC(=O)C2CCC1C3CC4=O (stereo unspecified)
inactive: endpoint: mean survival time, dose: 3.12 mg/kg/injection, schedule: Q01DX009 (ip), vehicle: DMSO 95 % of control | endpoint: mean survival time, dose: 6.25 mg/kg/injection, schedule: Q01DX009 (ip), vehicle: DMSO 96 % of control and 98 % of control | endpoint: mean survival time, dose: 12.5 mg/kg/injection, schedule: Q01DX009 (ip), vehicle: DMSO 90 % of control and 94 % of control | endpoint: mean survival time, dose: 25.0 mg/kg/injection, schedule: Q01DX009 (ip), vehicle: DMSO 94 % of control and 98 % of control | endpoint: mean survival time, dose: 50.0 mg/kg/injection, schedule: Q01DX009 (ip), vehicle: DMSO 104 % of control | endpoint: mean survival time, dose: 100.0 mg/kg/injection, schedule: Q01DX009 (ip), vehicle: DMSO 93 % of control | endpoint: mean survival time, dose: 200.0 mg/kg/injection, schedule: Q01DX009 (ip), vehicle: DMSO 112 % of control

CSc1cc(C)c(O)c(C)c1
inactive: [11] 100 % of control | [12] 104 % of control | [13] 102 % of control

O=C1CCCCCCCCC1O (stereo unspecified)
inactive: [11] 102 % of control | [12] 103 % of control | [13] 96 % of control

O=C(Oc1ccc(=O)[nH]n1)c1ccccc1
inactive: endpoint: mean survival time, dose: 12.5 mg/kg/injection, schedule: Q04DX002 (ip), vehicle: saline with Tween-80 98 % of control | endpoint: mean survival time, dose: 25.0 mg/kg/injection, schedule: Q04DX002 (ip), vehicle: saline with Tween-80 94 % of control | endpoint: mean survival time, dose: 50.0 mg/kg/injection, schedule: Q04DX002 (ip), vehicle: saline with Tween-80 90 % of control and 94 % of control | endpoint: mean survival time, dose: 200.0 mg/kg/injection, schedule: Q04DX002 (ip), vehicle: saline with Tween-80 87 % of control

CC12OC3(C)C4C(=O)OC1C1(C)OC4(C)C3C(=O)OC21
inactive: endpoint: mean survival time, dose: 100.0 mg/kg/injection, schedule: Q01DX001 (ip), vehicle: saline 106 % of control | [2] 100 % of control | endpoint: mean survival time, dose: 200.0 mg/kg/injection, schedule: Q01DX001 (ip), vehicle: saline 102 % of control | [3] 102 % of control | endpoint: mean survival time, dose: 400.0 mg/kg/injection, schedule: Q01DX001 (ip), vehicle: saline 100 % of control | endpoint: mean survival time, dose: 400.0 mg/kg/injection, schedule: Q04DX003 (ip), vehicle: saline 97 % of control

CCOC(=O)/C=C1\NC(=O)N(CCCN2C(=O)N/C(=C\C(=O)OCC)C2=O)C1=O
inactive: endpoint: mean survival time, dose: 3.13 mg/kg/injection, schedule: Q01DX009 (ip), vehicle: saline with Tween-80 95 % of control | [9] 98 % of control | [10] 95 % of control | [5] 92 % of control

CC1(O)CC2C=CC1CC2 (stereo unspecified)
inactive: [11] 101 % of control | [12] 104 % of control | [13] 95 % of control

CC(=O)Nc1ccc2c(c1)Cc1cc(NC(C)=O)c(Cl)cc1-2
inactive: [11] 103 % of control | [12] 97 % of control | [13] 98 % of control

Clc1nc(Cl)nc(-c2cccn2-c2ccccc2)n1
inactive: [6] 93 % of control | [11] 102 % of control | [12] 108 % of control | [13] 115 % of control

O=C(Cl)c1ccccc1Sc1ccccc1
inactive: [11] 87 % of control

CCOC(=O)Cc1c(C)[nH]c2c(Br)cc(C)c(C)c12
inactive: endpoint: mean survival time, dose: 100.0 mg/kg/injection, schedule: Q01DX001 (ip), vehicle: other 98 % of control | endpoint: mean survival time, dose: 200.0 mg/kg/injection, schedule: Q01DX001 (ip), vehicle: other 89 % of control | endpoint: mean survival time, dose: 400.0 mg/kg/injection, schedule: Q01DX001 (ip), vehicle: other 110 % of control

O=C(OC1C(COP(=O)(Oc2ccccc2)Oc2ccccc2)OC(n2nc(SCc3ccccc3)c(=O)[nH]c2=O)C1OC(=O)c1ccccc1)c1ccccc1 (stereo unspecified)
inactive: endpoint: median survival time, dose: 12.5 mg/kg/injection, schedule: Q01DX005 (ip), vehicle: distilled water + Tween-80 96 % of control | endpoint: median survival time, dose: 25.0 mg/kg/injection, schedule: Q01DX005 (ip), vehicle: distilled water + Tween-80 96 % of control | endpoint: median survival time, dose: 50.0 mg/kg/injection, schedule: Q01DX005 (ip), vehicle: distilled water + Tween-80 97 % of control | endpoint: median survival time, dose: 100.0 mg/kg/injection, schedule: Q01DX005 (ip), vehicle: distilled water + Tween-80 97 % of control | endpoint: median survival time, dose: 200.0 mg/kg/injection, schedule: Q01DX005 (ip), vehicle: distilled water + Tween-80 96 % of control

CCCCS(=O)(=O)F
inactive: endpoint: mean survival time, dose: 25.0 mg/kg/injection, schedule: Q04DX002 (ip), vehicle: saline 96 % of control | endpoint: mean survival time, dose: 50.0 mg/kg/injection, schedule: Q04DX002 (ip), vehicle: saline 101 % of control

CCCCCCOS(=O)OC(C)C(Cl)C(=O)OCC (stereo unspecified)
inactive: [6] 97 % of control | [7] 97 % of control | [8] 100 % of control

CC(=O)NC(CSC(c1ccccc1)(c1ccccc1)c1ccccc1)C(=O)O (stereo unspecified)
inactive: endpoint: mean survival time, dose: 25.0 mg/kg/injection, schedule: Q01DX009 (ip), vehicle: saline 101 % of control | endpoint: mean survival time, dose: 50.0 mg/kg/injection, schedule: Q01DX009 (ip), vehicle: saline 100 % of control | endpoint: mean survival time, dose: 100.0 mg/kg/injection, schedule: Q01DX009 (ip), vehicle: saline 101 % of control

CC(=O)Nc1nnc([N+](=O)[O-])s1
inactive: [11] 95 % of control | [12] 91 % of control | [13] 94 % of control

COc1cc(/C=N/NC(=O)COc2ccccc2)ccc1O
inactive: [6] 89 % of control | [7] 89 % of control | [8] 94 % of control

O=S(=O)(O)O.[N-]=C(N)/N=C(\[NH-])N.[N-]=C(N)/N=C(\[NH-])N.[N-]=C(N)NC(=[N-])N.[Rh+3]
inactive: [1] 96 % of control | [2] 100 % of control

CC(C)CC(N)C(=O)NCCCCCCCCCCNC(=O)C(N)CC(C)C (stereo unspecified)
inactive: endpoint: mean survival time, dose: 6.25 mg/kg/injection, schedule: Q01DX010 (ip), vehicle: saline 100 % of control | endpoint: mean survival time, dose: 12.5 mg/kg/injection, schedule: Q01DX010 (ip), vehicle: saline 113 % of control | endpoint: mean survival time, dose: 25.0 mg/kg/injection, schedule: Q01DX010 (ip), vehicle: saline 97 % of control | endpoint: mean survival time, dose: 50.0 mg/kg/injection, schedule: Q01DX010 (ip), vehicle: saline 91 % of control

O=C(CNC(=O)c1ccccc1)N/N=C/c1cccc([N+](=O)[O-])c1
inactive: [6] 90 % of control | [8] 89 % of control

O=C(Nc1c(Cl)cccc1Cl)Oc1ccc(Br)cc1
inactive: [5] 103 % of control | [6] 103 % of control

O=C(NNC(=O)c1cccnc1)Nc1cccc(Cl)c1Cl
inactive: [5] 94 % of control | [7] 101 % of control
